Source: patent US20220050096A1, “ANALYTE-SENSITIVE PROBES AND CONTACT LENS FOR DIAGNOSIS OF OCULAR PATHOLOGIES” (University Of Maryland, Baltimore, priority 2020, published 2022)
Where two headings read alike, the source gives them in different places. Blank lines part the entries; values can stand above or below the molecule they belong to.

How the values were obtained:
[1] = cited from earlier work
[2] = cited from earlier work; for Lifetime (ns), Ca bound form / Q, Ca bound form: bound form (in parentheses)
[3] = cited from earlier work; remark: listed apart in the source
[4] = cited from earlier work; remark: listed apart in the source
[5] = Intensity decay of Prodan in various solvents and contact lenses; format: physicochemical
Description: (§1) Fluorescence Spectroscopic Measurements. Fluorescence intensities and intensity decays were measured using a Varian™ Eclipse 4 spectrofluorometer and a FluoTime300 instrument from PicoQuant™ (Berlin, Germany) and analyzed with the EasyTau™ software. The excitation source was a 473 nm laser diode with a repetition rate of 40 MHZ and a pulse width less than 100 ps. In other embodiments, the excitation source for SG-PL was at 495 nm from a Solea™ supercontinuum laser (PicoQuant™, Germany) and a 375 nm laser diode (PDL 375, PicoQuant™), a repetition rate of 40 MHz, and a pulse width less than 100 ps. Some intensity and lifetime measurements for SG-PL (as indicated) were performed using Alba V confocal fluorescence lifetime microscopy, FLIM (ISS, Urbana, Ill.), with excitation source of a 473 nm laser diode with a repetition rate of 40 MHz and a pulse width near 250 ps.
(§2) Intensity decays were measured at the emission maximum with the band of 10 to 20 nm, analyzed in terms of the multi-exponential model:
(§3) I(t)=Σαi exp(−t/ti) (equation 1)
(§4) where Σαi=1.0 and Σfi=1.0. The term fi=αi τi is proportional to the fractional contribution of each component to the total intensity decay. The term τi/Σαi τi is the fractional contribution to the steady state emission. Here, we use the amplitude-weighted lifetime given by
The observed spectral properties of 1,8-ANS in lens are consistent with 1,8-ANS properties noticed in a non-polar environment. The probe 6-propionyl-2-dimethylaminonaphthalene (Prodan™), which is also highly sensitive to local polarity, also was used. […] In MyDay™ lenses the emission maximum is at a shorter wavelength than that in acetonitrile.

[6] = Intensity decay analysis of 1,8-ANS in various solvents and contact lenses; format: physicochemical
Description: as §1, §2, §3, §4
In polar solvents like water, the emission of many fluorophores is shifted to longer wavelengths. In addition, the intensities can be much lower and the lifetimes much shorter. […] Table 20, below. […]

[7] = Chloride quenching (Stern-Volmer) of SPQ-C3 in water; format: physicochemical
Description: Quenching by Chloride. Collisional quenching occurs, for example, when SPQ-C18 (also referred to as OD-MQB (N-Octadecyl-6-methoxyquinolinium bromide)) has a diffusion collision with a chloride ion. The intensities (I) and lifetimes (6) are analyzed using the Stern-Volmer equation,
where F0 and τ0 are the intensities and lifetimes in the absence of chloride, and K is the quenching constant and the inverse of the [Cl^−] needed for 50% quenching. For collisional quenching, the value of F0/F and τ0/τ are typically the same. In solution, in the absence of lenses, the value of K=kq τ0 can be used to calculate the biomolecular quenching constant kq and the quenching efficiency. In the lenses, the [Cl−] may not be the same as in the bulk solution, but kq in the lenses is estimated by assuming the same concentration of chloride around the SPQ moiety in the lenses and in bulk solutions.
This approach for SPQ-C18 in lenses is shown in both intensities and amplitude-weighted lifetimes (FIG. 35A and FIG. 35B). […] This behavior is different from SG-PL where the binding site can be saturated at high Na^+ concentrations. In contrast, quenching of OD-MQB, both intensity and lifetime, continue to decrease as the chloride concentration increased. The steady-state intensities and intensity decays can be used to calculate the bimolecular quenching constant kq. This value can be interpreted by comparison with quenching of a fluorophore in solution without any steric barriers. For this measurement the water-soluble fluorophore 1-propenyl-6-methoxyquinolinium bromide (SPQ-C3) was used. This is the same structure of SPQ-C18 but with a shorter, three carbon propenyl chain. The unquenched lifetime (τ0) of P-MQB was 26 ns, and the Stern-Volmer constant K was 140 M^−1. From these values, we calculated the kq of 5.4×10^9 M^−1 sec^−1 which is a typical value for efficient quenching.
Emission spectra and time-dependent decays were obtained (data not shown). Stern-Volmer plots were obtained in water and in a Stenfilcon A (Aspire™) contact lens by plotting the normalized intensities with respect to the added chloride concentrations.

[8] = cation-bound form (in parentheses)

SMILES: O=S(=O)(O)c1cc(O)c2ccc3c(S(=O)(=O)O)cc(S(=O)(=O)O)c4ccc1c2c34 [HPTS, 8-hydroxypyrene-1,3,6-trisulfonate]
pKA [1]: 7.3

SMILES: Cc1ccc(N(CC(=O)O)CC(=O)O)c(OCCOc2cc3cc(-c4ncc(C(=O)O)o4)oc3cc2N(CC(=O)O)CC(=O)O)c1 [F ? -2]
Lifetime (ns), Ca bound form [2]: 1.68 ns
Q, Ca bound form [2]: 0.49
Lifetime (ns), Ca free form [2]: 1.09 ns
Q, Ca free form [2]: 0.23

SMILES: COc1cc2cc(-c3ccc(C(=O)O)cc3C(=O)O)oc2cc1N1CCOCCOCCN(c2cc3oc(-c4ccc(C(=O)O)cc4C(=O)O)cc3cc2OC)CCOCCOCC1 [PBF ?]
Lifetime (ns), cation-bound form [3, 8]: 0.72 ns
Q, cation-bound form [3, 8]: 0.72
Lifetime (ns), free form ([3]; free form): 0.47 ns
Q, free form ([3]; free form): 0.24

SMILES: Cc1ccc(N(CC(=O)O)CC(=O)O)c(OCCOc2cc(-c3c4cc(Cl)c(=O)cc-4oc4cc(O)c(Cl)cc34)ccc2N(CC(=O)O)CC(=O)O)c1 [Pluo-3]
Lifetime (ns), Ca bound form [2]: 1.28 ns
Lifetime (ns), Ca free form [2]: 0.04 ns

SMILES: Cc1ccc(N(CC(=O)O)CC(=O)O)c(OCCOc2cc(-c3cc4ccc(C(=O)O)cc4[nH]3)ccc2N(CC(=O)O)CC(=O)O)c1 [Indo-1]
Lifetime (ns), Ca bound form [2]: 1.66 ns
Q, Ca bound form [2]: 0.50
Lifetime (ns), Ca free form [2]: 1.40 ns
Q, Ca free form [2]: 0.38

SMILES: COc1cc2cc(-c3ccc(C(=O)O)cc3C(=O)O)oc2cc1N1CCOCCOCCN(c2cc3oc(-c4ccc(C(=O)O)cc4C(=O)O)cc3cc2OC)CCOCC1 [SBF ?]
Lifetime (ns), cation-bound form [4, 8]: 0.47 ns
Q, cation-bound form [4, 8]: 0.087
Lifetime (ns), free form ([4]; free form): 0.27 ns
Q, free form ([4]; free form): 0.645
Kd ([4]; read-out: K (mM), binding constant): 3.8 mM

SMILES: O=c1ccc2nc3ccc(O)cc3oc-2c1 [Resorufin]
Lifetime (ns) τA ([1]; A form (value in parentheses)): 0.45 ns
Lifetime (ns) τB ([1]; B form): 2.92 ns
pKA [1]: ~5.7

SMILES: O=C(O)c1ccccc1-c1c2cc(F)c(=O)cc-2oc2cc(O)c(F)cc12 [Oregon-Green]
Lifetime (ns) τA ([1]; A form (value in parentheses)): 2.47 ns
QA ([1]; A form (value in parentheses)): 0.22
Lifetime (ns) τB ([1]; B form): 4.37 ns
QB ([1]; B form): 0.65
pKA [1]: 1.8

f1 ([5]; in 1-hexanol): 1.0
α1 ([5]; in 1-hexanol): 1.0
τ1 ([5]; in 1-hexanol): 3.40 ns
τf ([5]; in 1-hexanol): 3.40 ns
τα ([5]; in 1-hexanol): 3.40 ns
f1 ([5]; in Acetonitrile): 1.0
α1 ([5]; in Acetonitrile): 1.0
τ1 ([5]; in Acetonitrile): 3.38 ns
τf ([5]; in Acetonitrile): 3.38 ns
τα ([5]; in Acetonitrile): 3.38 ns
f1 ([5]; in Biofinity contact lens): 1.0
α1 ([5]; in Biofinity contact lens): 1.0
τ1 ([5]; in Biofinity contact lens): 3.98 ns
τf ([5]; in Biofinity contact lens): 3.98 ns
τα ([5]; in Biofinity contact lens): 3.98 ns
f1 ([5]; in EtOH): 1.0
α1 ([5]; in EtOH): 1.0
τ1 ([5]; in EtOH): 3.28 ns
τf ([5]; in EtOH): 3.28 ns
τα ([5]; in EtOH): 3.28 ns
f1 ([5]; in MyDay contact lens, 2 hr): 0.82
f2 ([5]; in MyDay contact lens, 2 hr): 0.18
α1 ([5]; in MyDay contact lens, 2 hr): 0.94
α2 ([5]; in MyDay contact lens, 2 hr): 0.07
τ1 ([5]; in MyDay contact lens, 2 hr): 3.81 ns
τ2 ([5]; in MyDay contact lens, 2 hr): 12.15 ns
τf ([5]; in MyDay contact lens, 2 hr): 5.34 ns
τα ([5]; in MyDay contact lens, 2 hr): 4.36 ns
f1 ([5]; in MyDay contact lens, 1 day): 0.67
f2 ([5]; in MyDay contact lens, 1 day): 0.33
α1 ([5]; in MyDay contact lens, 1 day): 0.87
α2 ([5]; in MyDay contact lens, 1 day): 0.13
τ1 ([5]; in MyDay contact lens, 1 day): 4.48 ns
τ2 ([5]; in MyDay contact lens, 1 day): 14.41 ns
τf ([5]; in MyDay contact lens, 1 day): 7.76 ns
τα ([5]; in MyDay contact lens, 1 day): 5.80 ns
f1 ([5]; in Water): 0.494
f2 ([5]; in Water): 0.51
α1 ([5]; in Water): 0.740
α2 ([5]; in Water): 0.260
τ1 ([5]; in Water): 0.69 ns
τ2 ([5]; in Water): 2.02 ns
τf ([5]; in Water): 1.36 ns
τα ([5]; in Water): 1.04 ns
SMILES: CCC(=O)c1ccc2cc(N(C)C)ccc2c1 [Prodan ™]

SMILES: O=S(=O)(O)c1cccc2cccc(Nc3ccccc3)c12 [1,8-ANS, 1-anilino-8-naphthalene sulfonic acid]
f1 ([6]; 1-hexanol): 0.01
f2 ([6]; 1-hexanol): 0.99
α1 ([6]; 1-hexanol): 0.08
α2 ([6]; 1-hexanol): 0.92
τ1 ([6]; 1-hexanol): 1.77 ns
τ2 ([6]; 1-hexanol): 12.02 ns
τf ([6]; 1-hexanol): 11.88 ns
τα ([6]; 1-hexanol): 11.18 ns
f1 ([6]; 25/75 MeOH/H2O): 0.98
f2 ([6]; 25/75 MeOH/H2O): 0.02
α1 ([6]; 25/75 MeOH/H2O): 0.996
α2 ([6]; 25/75 MeOH/H2O): 0.004
τ1 ([6]; 25/75 MeOH/H2O): 0.52 ns
τ2 ([6]; 25/75 MeOH/H2O): 2.36 ns
τf ([6]; 25/75 MeOH/H2O): 0.54 ns
τα ([6]; 25/75 MeOH/H2O): 0.52 ns
f1 ([6]; 50/50 MeOH/H2O): 0.85
f2 ([6]; 50/50 MeOH/H2O): 0.15
α1 ([6]; 50/50 MeOH/H2O): 0.925
α2 ([6]; 50/50 MeOH/H2O): 0.075
τ1 ([6]; 50/50 MeOH/H2O): 1.09 ns
τ2 ([6]; 50/50 MeOH/H2O): 2.33 ns
τf ([6]; 50/50 MeOH/H2O): 1.27 ns
τα ([6]; 50/50 MeOH/H2O): 1.19 ns
f1 ([6]; Acetonitrile): 1.0
α1 ([6]; Acetonitrile): 1.0
τ1 ([6]; Acetonitrile): 7.04 ns
τf ([6]; Acetonitrile): 7.04 ns
τα ([6]; Acetonitrile): 7.04 ns
f1 ([6]; Biofinity ™ lens): 0.05
f2 ([6]; Biofinity ™ lens): 0.95
α1 ([6]; Biofinity ™ lens): 0.36
α2 ([6]; Biofinity ™ lens): 0.64
τ1 ([6]; Biofinity ™ lens): 0.40 ns
τ2 ([6]; Biofinity ™ lens): 11.00 ns
τf ([6]; Biofinity ™ lens): 11.91 ns
τα ([6]; Biofinity ™ lens): 8.76 ns
f1 ([6]; EtOH): 0.02
f2 ([6]; EtOH): 0.98
α1 ([6]; EtOH): 0.05
α2 ([6]; EtOH): 0.95
τ1 ([6]; EtOH): 3.13 ns
τ2 ([6]; EtOH): 8.83 ns
τf ([6]; EtOH): 8.74 ns
τα ([6]; EtOH): 8.57 ns
f1 ([6]; MyDay ™ lens): 0.20
f2 ([6]; MyDay ™ lens): 0.80
α1 ([6]; MyDay ™ lens): 0.421
α2 ([6]; MyDay ™ lens): 0.578
τ1 ([6]; MyDay ™ lens): 4.01 ns
τ2 ([6]; MyDay ™ lens): 12.79 ns
τf ([6]; MyDay ™ lens): 11.97 ns
τα ([6]; MyDay ™ lens): 9.70 ns

unquenched lifetime (τ0) ([7]; in solution): 26 ns
SMILES: CC=C[n+]1cccc2cc(OC)ccc21.[Br-] [SPQ-C3, 1-propenyl-6-methoxyquinolinium bromide]
bimolecular quenching constant ([7]; in Water): 5.4e+09 M⁻¹ s⁻¹
Stern-Volmer constant K ([7]; in solution): 140 M⁻¹
bimolecular quenching constant kq ([7]; in solution, listed as P-MQB): 5.4e+09 M⁻¹ s⁻¹

SMILES: CCN(CC)Cc1ccnc(-c2cc(CN(CC)CC)ccn2)c1.[Ru+2].c1ccc(-c2ccccn2)nc1.c1ccc(-c2ccccn2)nc1 [[Ru(deabpy)(bpy)2]^2+]
Lifetime (ns) τA ([1]; A form (value in parentheses)): 235 ns
Lifetime (ns) τB ([1]; B form): 380 ns
pKA [1]: 7.5

SMILES: COc1cc(N(CC(=O)O)CC(=O)O)c2nc(COc3cc(C)ccc3N(CC(=O)O)CC(=O)O)ccc2c1 [Quin-2]
Lifetime (ns), Ca bound form [2]: 11.6 ns
Q, Ca bound form [2]: 0.14
Lifetime (ns), Ca free form [2]: 1.35 ns
Q, Ca free form [2]: 0.03
